Test results from US20150164957A1, “CONVERSION OF CARDIOMYOCYTES INTO FAST CONDUCTING CARDIOMYOCYTES OR SLOW CONDUCTING NODAL CELLS” (The University of Chicago, priority 2012, published 2015).

Columns and labels:
Nav1.8 [1] = target: Nav1.8 (Homo sapiens, UniProt Q9Y5Y9); conditions: at the dose used; cited from earlier work
Nav1.8 [2] = conditions: after administration of A-803467; cited from earlier work
[3] = tested on: Mice with hyperactivation of Nav1.8; conditions: cited from earlier work
[4] = tested on: tamoxifen-treated Tbx5^minKCreERT2 and Tbx5^fl/fl mice; assay: Invasive EP studies (intracardiac recordings) following atropine administration; type: in vivo, mouse; conditions: for AH (AtrioHisian interval) / HV (Hisioventricular interval) / Hd (His interval duration) / SCL (sinus cycle length): Post-Atropine (20 mg/kg), Mean +/- SD
Method: Electrophysiology Studies. Electrophysiology studies were performed in collaboration with Fang Liu, Kurt Schillinger, and Vic Patel at The University of Pennsylvania. Detailed protocols for in vivo electrophysiology studies have been previously described (Liu, et al., 2008). 10-12 week old mice were anesthetized with pentobarbital (33 mg/kg ip) and a 1.1-Fr octapolar electrode catheter (Millar; EPR-800) was advanced via a right jugular venous cut-down to record right atrial, His bundle, right ventricular potentials and perform programmed electrical stimulation. For studies involving atropine, surface ECG and intracardiac recordings were obtained, then repeated after mice were injected with 20 mg/kg atropine.
The autonomic nervous system can play an important role in modulating cardiac conduction. Specifically, activation of the sympathetic nervous system can increase heart rate, contractility, and accelerate conduction through the AV node, while parasympathetic stimulation via the vagus nerve can act at the SA and AV nodes to decrease heart rate and slow AV conduction. To determine whether slowed conduction in Tbx5^minkCreERT2 mice was secondary to increased vagal tone, the inventors administered atropine, a cholinergic antagonist, to tamoxifen-treated Tbx5^minKCreERT2 and Tbx5^fl/fl mice and evaluated conduction intervals by EP studies.

Nav1.8 (Homo sapiens, UniProt Q9Y5Y9), sequence (Q9Y5Y9 whole entry): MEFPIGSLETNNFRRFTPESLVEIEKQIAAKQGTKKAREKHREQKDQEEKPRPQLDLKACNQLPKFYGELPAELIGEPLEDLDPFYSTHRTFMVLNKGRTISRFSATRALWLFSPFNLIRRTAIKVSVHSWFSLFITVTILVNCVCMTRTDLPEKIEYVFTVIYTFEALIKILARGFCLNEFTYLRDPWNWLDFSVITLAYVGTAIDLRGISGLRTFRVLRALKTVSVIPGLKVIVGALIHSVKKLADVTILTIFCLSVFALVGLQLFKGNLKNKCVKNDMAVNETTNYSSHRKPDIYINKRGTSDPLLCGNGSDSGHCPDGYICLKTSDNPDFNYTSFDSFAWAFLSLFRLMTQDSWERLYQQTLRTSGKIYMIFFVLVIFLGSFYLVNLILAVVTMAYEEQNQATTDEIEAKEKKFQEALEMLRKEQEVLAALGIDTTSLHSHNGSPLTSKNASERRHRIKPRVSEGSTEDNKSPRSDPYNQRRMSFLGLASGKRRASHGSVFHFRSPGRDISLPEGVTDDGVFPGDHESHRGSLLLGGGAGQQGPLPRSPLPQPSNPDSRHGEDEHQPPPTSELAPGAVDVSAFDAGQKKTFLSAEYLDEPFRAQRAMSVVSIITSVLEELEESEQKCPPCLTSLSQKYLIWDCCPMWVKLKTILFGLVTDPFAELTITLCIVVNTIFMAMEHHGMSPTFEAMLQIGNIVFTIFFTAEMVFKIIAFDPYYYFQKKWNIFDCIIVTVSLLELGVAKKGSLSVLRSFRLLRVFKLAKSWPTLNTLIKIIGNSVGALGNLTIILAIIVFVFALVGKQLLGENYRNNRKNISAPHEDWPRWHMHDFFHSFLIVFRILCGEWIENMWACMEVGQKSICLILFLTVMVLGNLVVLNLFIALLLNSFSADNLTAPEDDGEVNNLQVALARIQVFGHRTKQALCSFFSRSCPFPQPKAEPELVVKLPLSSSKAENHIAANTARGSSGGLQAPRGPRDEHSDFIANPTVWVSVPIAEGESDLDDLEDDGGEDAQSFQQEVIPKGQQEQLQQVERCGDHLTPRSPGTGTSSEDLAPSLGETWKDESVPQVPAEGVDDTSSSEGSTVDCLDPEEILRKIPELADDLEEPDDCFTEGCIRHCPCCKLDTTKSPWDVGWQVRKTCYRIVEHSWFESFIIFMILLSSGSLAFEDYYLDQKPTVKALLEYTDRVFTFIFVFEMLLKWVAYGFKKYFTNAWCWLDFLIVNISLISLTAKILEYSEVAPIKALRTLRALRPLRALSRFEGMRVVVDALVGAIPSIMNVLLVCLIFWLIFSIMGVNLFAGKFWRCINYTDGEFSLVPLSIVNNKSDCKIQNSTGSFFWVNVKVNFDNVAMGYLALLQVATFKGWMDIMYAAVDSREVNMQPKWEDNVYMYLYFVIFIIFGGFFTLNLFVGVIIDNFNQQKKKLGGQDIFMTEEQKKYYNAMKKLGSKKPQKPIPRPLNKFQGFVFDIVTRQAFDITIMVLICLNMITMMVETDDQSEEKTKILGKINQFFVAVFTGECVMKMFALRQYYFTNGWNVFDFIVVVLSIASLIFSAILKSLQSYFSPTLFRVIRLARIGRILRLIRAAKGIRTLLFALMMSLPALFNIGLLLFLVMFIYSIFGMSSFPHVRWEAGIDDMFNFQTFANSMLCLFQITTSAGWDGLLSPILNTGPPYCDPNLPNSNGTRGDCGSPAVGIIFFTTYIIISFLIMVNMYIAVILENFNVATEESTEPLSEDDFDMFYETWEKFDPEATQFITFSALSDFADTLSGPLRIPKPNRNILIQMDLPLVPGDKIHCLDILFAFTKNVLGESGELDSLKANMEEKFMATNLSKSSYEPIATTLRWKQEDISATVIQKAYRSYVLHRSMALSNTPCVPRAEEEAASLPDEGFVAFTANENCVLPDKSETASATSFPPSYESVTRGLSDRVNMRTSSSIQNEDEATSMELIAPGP

Row | Structure (SMILES) | Activity against Nav1.8 relative to Nav1.5 (Nav1.8 [1]) [fold] | H-V interval (Nav1.8 [2]) | P-R interval (Nav1.8 [2]) | QRS interval (Nav1.8 [2]) | Effect on sinus bradycardia following scruffing [3] | AH (AtrioHisian interval) ([4]; Tbx5^fl/fl mice (n = 3)) [ms] | HV (Hisioventricular interval) ([4]; Tbx5^fl/fl mice (n = 3)) [ms] | Hd (His interval duration) ([4]; Tbx5^fl/fl mice (n = 3)) [ms] | SCL (sinus cycle length) ([4]; Tbx5^fl/fl mice (n = 3)) [ms] | AH (AtrioHisian interval) ([4]; Tbx5^minKCreERT2 mice (n = 3)) [ms] | HV (Hisioventricular interval) ([4]; Tbx5^minKCreERT2 mice (n = 3)) [ms] | Hd (His interval duration) ([4]; Tbx5^minKCreERT2 mice (n = 3)) [ms] | SCL (sinus cycle length) ([4]; Tbx5^minKCreERT2 mice (n = 3)) [ms] | Effect of cholinergic blockade on conduction ([4]; Tbx5^minKCreERT2 or Tbx5^fl/fl mice, EP studies)
1 | COc1cc(NC(=O)c2ccc(-c3ccc(Cl)cc3)o2)cc(OC)c1 [A-803467] | 100 | increased | increased | increased | – | – | – | – | – | – | – | – | – | –
2 | CN1[C@@H]2CC[C@H]1C[C@@H](OC(=O)C(CO)c1ccccc1)C2 (some centres unmarked) [Atropine, atropine] | – | – | – | – | blocked | 28.0 ± 9.9 | 9.0 ± 3.2 | 3.7 ± 1.5 | 141.3 ± 30.9 | 35.7 ± 3.6 | 26.0 ± 2.4 | 11.7 ± 2.5 | 146.3 ± 11.6 | did not result in accelerated conduction
